Assay results from patent publication US20250017853A1, “NANOSUSPENSION CONTAINING PROGERININ, AND PREPARATION METHOD THEREFOR” (PRG S&Tech Inc., priority 2021, published 2025).

Legend:
[1] = Stability of spray-dried solid dispersions under high temperature and high humidity for 2 weeks; format: physicochemical; settings: for Appearance / HPLC results Purity / XRPD: open
[2] = Excipient compatibility, binary mixtures 1:10, 40° C./75% RH over 2 weeks; format: physicochemical
Procedure: To assess compatibility with excipients, progerinin was mixed with HPMC E3, TPGS, and potassium sorbate in a ratio of 1:10, and the effectiveness of the drug (API) components was measured under 40° C./75% RH condition over 2 weeks and shown in Table 9 and Table 10.

[3] = BCS classification, permeability and solubility of progerinin; format: physicochemical
From the text: In particular, the above-mentioned progerinin is poorly soluble to the extent that its solubility in water is close to zero, and the solubility is very low even in existing ingestible solvents, such that it is necessary to develop a formulation that enables long-term intake and body absorption through the introduction of new technology.

[4] = tested on: progeria-induced animal model; settings: background art; cited from earlier work
[5] = BCS criteria; cited from earlier work

Structure (SMILES): CC1(C)Oc2cc3oc(=O)ccc3cc2C[C@@H]1OC/C=C/c1ccccc1 [progerinin, (7S)-(+)-8,8-dimethyl-7-(3-phenylallyloxy)-7,8-dihydro-6H-pyrano [3,2-g]chromen-2-one]
- Appearance ([1]; 25° C./60% RH): White
- HPLC results Purity ([1]; 25° C./60% RH, after 1 week): 99.85%
- XRPD ([1]; 25° C./60% RH, after 1 week): Unchanged
- HPLC results Purity ([1]; 25° C./60% RH, after 2 weeks): 99.85%
- XRPD ([1]; 25° C./60% RH, after 2 weeks): Unchanged
- Appearance ([1]; 40° C./75% RH): White
- HPLC results Purity ([1]; 40° C./75% RH, after 1 week): 99.85%
- XRPD ([1]; 40° C./75% RH, after 1 week): Unchanged
- HPLC results Purity ([1]; 40° C./75% RH, after 2 weeks): 99.85%
- XRPD ([1]; 40° C./75% RH, after 2 weeks): Unchanged
- Initial purity ([1]; Initial): 99.85%
- API(% Area) ([2]; 40° C./75% RH, 1 week): 99.94 % Area
- RRT = 1.02 ([2]; 40° C./75% RH, 1 week): 0.06
- API(% Area) ([2]; 40° C./75% RH, 2 weeks): 99.95 % Area
- RRT = 1.02 ([2]; 40° C./75% RH, 2 weeks): 0.05
- API(% Area) ([2]; Initial): 99.94 % Area
- RRT = 1.02 ([2]; Initial): 0.06
- compatibility with excipients HPMC E3, TPGS and potassium sorbate ([2]; text summary of Tables 9 and 10): no effect on the drug
- solubility in water [3]: close to zero
- survival period of progeria-induced animal model [4]: prolonging a survival period
- solubility in aqueous media [5]: low solubility in aqueous media
